Data as given in PMC11720353, “Clove Essential Oil as a Source of Antitumoral Compounds Capable of Crossing the Blood–Brain Barrier: A Focus on the Effects of β-Caryophyllene and Eugenol in a Glioblastoma Cell Line” (International Journal of Molecular Sciences, 2024).

How the values were obtained:
in vivo = conditions: male, Sprague-Dawley, rat; for Kp at 60 min: R (ratio of concentration between CSF and bloodstream)
Experimental: Male Sprague-Dawley rats (200–250 g) were purchased from the Charles River laboratories (Calco, Italy). BCA was administered to rats by intravenous and oral routes in order to evaluate the pharmacokinetic profiles in the bloodstream and cerebrospinal fluid (CSF). For the intravenous administration, BCA EO (84% w/w BCA content) was dissolved in ethanol to obtain a final BCA concentration of 8 mg/mL. A group (n = 4) of rats, fasted for 24 h, was anesthetized during the experimental period and then received via a femoral intravenous infusion (rate = 10 μL/min; 5 min) 50 µL of the 8 mg/mL ethanolic solution (BCA dose 2 mg/kg). This dosage was chosen basing on a previous study where BCA was intravenously administered to rats at a dose of about 1.5 mg/kg as a minor component of Artemisiae argyi Folium EO (5.3% w/w). For oral administration, BCA EO was dissolved in corn oil to obtain a final BCA concentration of 20 mg/mL. A total of 500 µL of this corn oil solution was orally administered by gavage to a group (n = 4) of rats kept fasting for 24 h (BCA dose 50 mg/kg).
At the end of the intravenous and oral administrations and at fixed time points, blood samples (100 μL) were collected. Moreover, CFS samples (about 30 μL) were withdrawn using the cisternal puncture method previously described. This method requires a single needle stick and allows the collection of serial (about 30 μL) CSF samples that are virtually blood-free. A total volume of a maximum of 120 μL of CSF/rat (i.e., four 30 μL samples/rat) was collected during the experimental session, choosing the time points (n = 4) to allow the restoration of the CSF physiological volume. The CSF samples (10 μL) were immediately analyzed via HPLC (see below) for the quantification of BCA. For the BCA analysis in the bloodstream, the blood samples (n = 4) were immediately added to 200 μL of ice-cold CH3CN, then 100 μL of the internal standard dissolved in CH3CN (100 μM GER-UDCA, obtained by the conjugation of geraniol with ursodeoxycholic acid) was further inserted. The samples were centrifuged at 16,000× g for 5 min, then about 300 μL of the supernatant was withdrawn and further centrifuged. Finally, 10 μL was analyzed via HPLC (see below) for BCA quantification. A blood sample (100 μL) was collected from each rat before the administration of the compound and was used as a control. The control samples were immediately added to 300 μL of ice-cold CH3CN in the absence of the internal standard and then treated as described above.
The BCA was quantified by the HPLC method, using a chromatographic apparatus that consisted of a modular system (model LC-10 AD VD pump and model SPD-10A VP variable wavelength UV−vis detector; Shimadzu, Kyoto, Japan) and an injection valve with a 20 μL sample loop (model 7725; Rheodyne, IDEX, Torrance, CA, USA). The separations were performed on a 5 μm Hypersil BDS C-18 column (150 mm × 4.6 mm i.d.; ThermoFisher Scientific S.p.A., Milan, Italy) equipped with a guard column packed with the same Hypersil material at room temperature by injecting 10 µL of the samples into the apparatus. Data were acquired and processed using CLASS-VP software, version 7.2.1 (Shimadzu Italia, Milan, Italy), installed on a personal computer. The mobile phase consisted of an isocratic mixture of water and acetonitrile at a ratio of 10:90 (v/v), with a flow rate of 1 mL/min. The detector was set at 205 nm. The retention times obtained were 7.5 min for BCA and 5.6 min for GER-UDCA.
The chromatographic precision was evaluated by repeated analyses (n = 6) of the same sample solution containing 100 μM (20.435 µg/mL) BCA dissolved in a mixture of water and CH3CN 25:75 (v/v). The chromatographic precision, expressed as the relative standard deviation (RSD) value, was 0.84%. […]

U87 cells = test: Metabolic activity (Alamar blue) assay and HSA synergy analysis; format: cell-based, human; conditions: EU 2.5, 25, 200 µM or BCA 1.25, 12.5, 125 µM alone, 24-72 h
Experimental: To evaluate the cytotoxic/antiproliferative potential of BCA and/or EU, the U87 and HMC3 cells were seeded, in triplicate, into 48-well culture plates (4 × 10^4 cells/well). After 24 h, the medium was replaced, and the cells were treated either with the vehicle (ethanol) or with different concentrations of EO single molecules, diluted in ethanol alone ([…]; BCA: 1.25 µM, µM, 125 µM) or in combination (EU 2 µM and BCA 1.25 µM; EU 20 µM and BCA 12.5 µM; and EU 200 µM and BCA 125 µM) in order to evaluate the possible synergistic effects. The final concentration of ethanol in the cell medium was kept lower than 0.1%. Non-treated cells were considered the control condition. Metabolic activity was evaluated using a modified Alamar blue® assay, as previously described. […] After 2 h of incubation at 5% CO2 and 37 °C, the absorbance was read at 570 and 600 nm in a BioTeck (BioTek Instruments, Inc., Winooski, VT, USA). The absorbance results were obtained using the Gen5 program. The metabolic activity was then calculated by the following equation: Metabolicactivity %=A570−A600 oftreated cells/A570−A600 ofcontrol cells×100 All data were analyzed using the software GraphPad Prism v.9.00 (GraphPad Software, San Diego, CA, USA). All in vitro experiments were performed in triplicate, and the acquired results were expressed as means ± SEM. […]

[1] = iv, 2 mg/kg, cerebrospinal fluid (CSF)
[2] = po, 50 mg/kg, cerebrospinal fluid (CSF)

## C=C1CC/C=C(\C)CC[C@@H]2[C@@H]1CC2(C)C [BCA, β-Caryophyllene]
In vivo; F (absolute bioavailability)
  bioavailability: 2.11 ± 0.03%
In vivo; iv, 2 mg/kg
  half-life: 49.7 ± 2 min
  time at which CSF concentration decreased to zero: ≤ 150 min
  time at which bloodstream concentration decreased to zero: ≤ 180 min
  Kp at 60 min: 0.08 ± 0.01
In vivo; iv, 2 mg/kg, bloodstream
  AUC: 108000 ng·h/mL
In vivo; [1]
  AUC: 6290 ng·h/mL
  Cmax: 8000 ± 800 ng/mL
  Tmax: 30 min
In vivo; iv, 2 mg/kg, R (ratio of concentration between CSF and bloodstream) at CSF Tmax
  Kp at 30 min: 0.13 ± 0.01
In vivo; po, 50 mg/kg
  Cmax, bloodstream: 22530 ± 90 ng/mL
  time at which CSF concentration decreased to zero: 120 min
  time at which bloodstream concentration decreased to 0: 300 min
  Kp at 60 min: ~0.01
In vivo; po, 50 mg/kg, 90 min
  R (ratio of concentration between CSF and bloodstream) at CSF Tmax: 0.019 ± 0.002
In vivo; po, 50 mg/kg, bloodstream
  AUC: 56800 ng·h/mL
  Cmax: 22500 ± 900 ng/mL
  Tmax: 60 min
In vivo; [2]
  AUC: 313 ng·h/mL
  Cmax: 420 ± 40 ng/mL
  Tmax: 90 min
In vivo; po, 50 mg/kg, R (ratio of concentration between CSF and bloodstream) at CSF Tmax
  Kp at 90 min: ~0.02
U87 cells
  reduction in metabolic activity, single compounds: No reduction
